Data taken from patent publication US20120196933A1, “MEXILETINE PRODRUGS” (priority 2010, published 2012).
Where “and” joins values, the source holds several entries; their conditions need not be identical. Identical values can stand only once. Counter-ions that a name gives are not always drawn. Like-named read-outs stand apart in the source and are kept apart here. Marks after values point to notes of the source that are not given here.

How the values were obtained:
[1] = Systemic availability of mexiletine in the dog from mexiletine prodrugs (oral gavage); format: in vivo; details: for AUC of mexiletine / Cmax of mexiletine / T50% Cmax / F(rel): 1 mg/kg mexiletine free base; for AUC of mexiletine / Cmax of mexiletine / T50% Cmax: plasma mexiletine; for F(rel): relative to mexiletine
Procedure: Test substances (i.e., mexiletine, and various mexiletine amino acid prodrugs) were administered by oral gavage to groups of two or some cases five dogs. The characteristics of the test animals are set out in Table 6.
Blood samples were taken at various times after administration and submitted to analysis for parent drug using a validated LC-MS-MS assay. Pharmacokinetic parameters derived from the plasma bioanalytical data were determined using Win Nonlin.

[2] = Systemic availability of mexiletine in the cynomolgus monkey from mexiletine prodrugs (oral gavage); format: in vivo; details: 1 mg/kg mexiletine free base; for AUC of mexiletine / Cmax of mexiletine / T50% Cmax: plasma mexiletine; for F(rel): relative to mexiletine
Procedure: Test substances (i.e., mexiletine, and various mexiletine amino acid prodrugs) were administered by oral gavage to groups of two and, in one case, five male cynomolgus monkeys. Blood samples were taken at various times after administration and submitted to analysis for the parent drug using a validated LC-MS-MS assay. Pharmacokinetic parameters derived from the plasma bioanalytical data were determined using Win Nonlin.

[3] = In vitro stability of mexiletine prodrugs under conditions prevailing in the gut; format: physicochemical; details: HPLC; for Simulated gastric fluid (pH 1.1): % remaining after 2 h/37° C.: simulated gastric fluid pH 1.1, 2 h; for Simulated intestinal fluid (pH 6.8): % remaining after 2 h/37° C.: simulated intestinal fluid pH 6.8, 2 h
Procedure: To investigate if the prodrugs of the present invention are stable in conditions mimicking the gut, various mexiletine amino acid prodrugs were incubated at 37° C. in simulated gastric and simulated intestinal juice (USP defined composition) for 2 hours. The remaining concentrations of the prodrug were then assayed by HPLC.

[4] = as above; format: physicochemical; details: 0.1M phosphate buffer pH 7.4, 2 h
[5] = tested on: rabbit stomach smooth muscle; experiment: Electrical field stimulated contractions of isolated rabbit stomach smooth muscle; format: cell-based; details: rabbit stomach antrum strips, EFS 14 Hz, read-out: ED50 for attenuation of EFS induced contractions
ferret = experiment: Emetic effects following oral administration to the ferret; format: in vivo; details: oral 20 mg/kg mexiletine HCl or molar equivalent, individual animals
Source text: Male ferrets (n=7) were allowed free access to pelleted diet until late afternoon on the day prior to the day of each test. The food was then removed and the ferrets were starved overnight. Food was not returned until after completion of the emetic observation.

[6] = oral, cited from earlier work
[7] = tested on: patients with myotonic disorders; details: 1200 mg daily tocamide or 600 mg daily mexiletine, three divided doses; cited from earlier work
[8] = listed as Mexiletine lysine amide

SMILES: Cc1cccc(C)c1OCC(C)NC(=O)C(N)CN (stereo not drawn)
- AUC of mexiletine [1]: 8371 ng·h/mL
- Cmax of mexiletine [1]: 103 ng/mL
- T50% Cmax [1]: 10.0 h
- F(rel) [1]: 77.9%
- AUC of mexiletine [2]: 801 ng·h/mL
- Cmax of mexiletine [2]: 82.7 ng/mL
- T50% Cmax [2]: 7.88 h
- F(rel) [2]: 116%

SMILES: Cc1cccc(C)c1OCC(C)NC(=O)C(N)CCCNC(=N)N(C)C.Cl.Cl (mixture of isomers) [Mexiletine-(S)—N,N-Dimethylarginine Amide Dihydrochloride]
- Simulated gastric fluid (pH 1.1): % remaining after 2 h/37° C. [3]: 99.7%
- Simulated intestinal fluid (pH 6.8): % remaining after 2 h/37° C. [3]: 96.8%
- pH 7.4, 37° C. 0.1M phosphate buffer: % remaining after 2 h/37° C. [4]: 99.6%

SMILES: Cc1cccc(C)c1OCC(C)NC(=O)[C@@H](N)CCCCN.O=C(O)C(F)(F)F.O=C(O)C(F)(F)F (mixture of isomers) [Mexiletine (S)-lysine amide, (Rac)-Mexiletine-(S)-Lysine Ditrifluoroacetate]
- Simulated gastric fluid (pH 1.1): % remaining after 2 h/37° C. [3, 8]: 99.8% and 100%
- Simulated intestinal fluid (pH 6.8): % remaining after 2 h/37° C. [3, 8]: 80.8% and 100%
- AUC of mexiletine [1]: 301** ng · h/mL
- Cmax of mexiletine [1]: 54.4** ng/mL
- T50% Cmax [1]: 5.0** h
- F(rel) [1]: 28.0** %
- EC50 [5]: 21.8 µM
- pH 7.4, 37° C. 0.1M phosphate buffer: % remaining after 2 h/37° C. [4]: 100%

SMILES: Cc1cccc(C)c1OCC(C)NC(=O)CN.O=C(O)C(F)(F)F (racemic) [Mexiletine glycine amide, Glycine-(rac)-mexiletine Trifluoroacetate]
- Simulated gastric fluid (pH 1.1): % remaining after 2 h/37° C. [3]: 99.8%
- Simulated intestinal fluid (pH 6.8): % remaining after 2 h/37° C. [3]: 99.8%
- T50% Cmax [1]: 5.5** h
- T50% Cmax [2]: 3.71** h
- EC50 ([5]; Oryctolagus cuniculus): 9.16 µM
- Total number of individual incidences of retching (ferret; 2 h observation): 20 (2×) and 2 (2×) and 12 and 0 and 10
- Total number of individual incidences of vomiting (ferret; 2 h observation): 5 and 1 (2×) and 2 and 0 (2×) and 3
- Time to onset of retching (ferret): 15 min (2×) and 13 min (2×) and 11 min and >120 min and 10 min
- Time to onset of vomiting (ferret): 17 min and 13 min (2×) and 11 min and >120 min (2×) and 15 min
- pH 7.4, 37° C. 0.1M phosphate buffer: % remaining after 2 h/37° C. [4]: 99.9%

SMILES: CNC(=N)NCCC[C@H](N)C(=O)NC(C)COc1c(C)cccc1C (stereo partly drawn) [Mexiletine (S)-N-methylarginine amide, Mexiletine-(S)—N-Methylarginine Amide Dihydrochloride]
- Simulated gastric fluid (pH 1.1): % remaining after 2 h/37° C. [3]: 99.8%
- Simulated intestinal fluid (pH 6.8): % remaining after 2 h/37° C. [3]: 93.6%
- pH 7.4, 37° C. 0.1M phosphate buffer: % remaining after 2 h/37° C. [4]: 99.9%

SMILES: Cc1cccc(C)c1OCC(C)NC(=O)[C@@H](N)CC[S+](C)C (stereo partly drawn) [Mexiletine S-methyl-methionine chloride, Mexiletine-[(S)—S-Methyl-Methionine Chloride] Amide Hydrochloride]
- Simulated gastric fluid (pH 1.1): % remaining after 2 h/37° C. [3]: 99.2%
- Simulated intestinal fluid (pH 6.8): % remaining after 2 h/37° C. [3]: 99.4%
- T50% Cmax [1]: 5.92 h
- T50% Cmax [2]: 5.99 h
- pH 7.4, 37° C. 0.1M phosphate buffer: % remaining after 2 h/37° C. [4]: 99.8%

SMILES: Cc1cccc(C)c1OCC(C)NC(=O)[C@@H](N)C[S+](C)[O-].O=C(O)C(F)(F)F (stereo partly drawn) [Mexiletine [(R)-S-methyl-cysteine, Mexiletine [(R)—S-Methyl-Cysteine Sulfoxide] Amide Trifluoroacetate]
- AUC of mexiletine [1]: 144 ng·h/mL
- Cmax of mexiletine [1]: 59.9 ng/mL
- T50% Cmax [1]: 1.63 h
- F(rel) [1]: 13.4%
- AUC of mexiletine [2]: 432 ng·h/mL
- Cmax of mexiletine [2]: 62.2 ng/mL
- T50% Cmax [2]: 4.80 h
- F(rel) ([2]; listed as Mexiletine methyl-cysteine sulfoxide amide, 1 mg/kg): 62.6%

SMILES: CC(=O)N[C@@H](CCCCN)C(=O)NC(C)COc1c(C)cccc1C.Cl (stereo partly drawn) [Mexiletine [(S)-N^α-acetyl-lysine] amide, Mexiletine [(S)—N^α-Acetyl-Lysine] Amide Hydrochloride]
- AUC of mexiletine [1]: 893 ng·h/mL
- Cmax of mexiletine [1]: 90.8 ng/mL
- T50% Cmax [1]: 8.08 h
- F(rel) ([1]; listed as Mexiletine α acetyl lysine amide, Hydrochloride, 1 mg/kg): 83.1%
- AUC of mexiletine [2]: 363 ng·h/mL
- Cmax of mexiletine [2]: 30.3 ng/mL
- T50% Cmax [2]: 8.98 h
- F(rel) ([2]; Hydrochloride, 1 mg/kg): 60%
- F(rel) ([2]; listed as Mexiletine acetyl Lysine amide, Hydrochloride, 1 mg/kg): 52.6%

SMILES: Cc1cccc(C)c1OCC(C)NC(=O)[C@@H](N)C(C)(C)O (stereo partly drawn) [Mexiletine [^α-hydroxy-(5)-valine] amide, Mexiletine [β-hydroxy-(S)-valine] amide]
- Cmax of mexiletine [1]: 1.68 ng/mL
- Cmax of mexiletine [2]: BLQ

SMILES: Cc1cccc(C)c1OCC(C)NC(=O)C(N)CCCNC(=N)N (stereo not drawn) [Mexiletine arginine amide]
- T50% Cmax [1]: 6.5** h
- T50% Cmax [2]: 4.48 h

SMILES: Cc1cccc(C)c1OCC(C)NC(=O)C(N)CCCNC(N)=O (stereo not drawn) [Mexiletine citrulline amide]
- T50% Cmax [1]: 3.0** h

SMILES: Cc1cccc(C)c1OCC(C)NC(=O)C(N)C1CC1 (stereo not drawn) [Mexiletine cyclopropyl glycine amide]
- Cmax of mexiletine [1]: 0.703 ng/mL
- Cmax of mexiletine [2]: 0.895 ng/mL

SMILES: Cc1cccc(C)c1OCC(C)NC(=O)[C@@H](N)CCC(N)=O.Cl (stereo partly drawn) [Mexiletine glutamine amide]
- Bioavailability with respect to mexiletine [1]: near complete
- AUC of mexiletine [1]: 790 ng·h/mL
- Cmax of mexiletine [1]: 117 ng/mL
- T50% Cmax [1]: 5.60 h
- F(rel) [1]: 73.5%
- AUC of mexiletine [2]: 649 ng·h/mL
- Cmax of mexiletine [2]: 105 ng/mL
- T50% Cmax [2]: 4.0 h
- F(rel) [2]: 94.1%

SMILES: Cc1cccc(C)c1OCC(C)NC(=O)[C@@H](N)CCCCN=C(N)N.Cl.Cl (stereo partly drawn) [Mexiletine homo arginine amide, Mexiletine-(S)-Homoarginine Amide Dihydrochloride]
- AUC of mexiletine [1]: 563 ng·h/mL
- Cmax of mexiletine [1]: 86.9 ng/mL
- T50% Cmax [1]: 5.39 h
- F(rel) [1]: 52.4%
- AUC of mexiletine [2]: 424 ng·h/mL
- Cmax of mexiletine [2]: 56.8 ng/mL
- T50% Cmax [2]: 5.13 h
- F(rel) [2]: 61.5%

SMILES: Cc1cccc(C)c1OCC(C)NC(=O)c1ccncc1 (stereo not drawn) [Mexiletine isonicotinic acid amide]
- Bioavailability with respect to mexiletine [1]: negligible

SMILES: Cc1cccc(C)c1OCC(C)NC(=O)c1cccnc1 (stereo not drawn) [Mexiletine nicotinic acid amide]
- Bioavailability with respect to mexiletine [1]: negligible
- Cmax of mexiletine [1]: BLQ

SMILES: Cc1cccc(C)c1OCC(C)NC(=O)[C@@H](N)CCCN (stereo partly drawn) [Mexiletine ornithine amide, Mexiletine-(S)-Ornithine Amide Di-hydrochloride]
- Simulated gastric fluid (pH 1.1): % remaining after 2 h/37° C. [3]: 99.7%
- Simulated intestinal fluid (pH 6.8): % remaining after 2 h/37° C. [3]: 99.8%
- pH 7.4, 37° C. 0.1M phosphate buffer: % remaining after 2 h/37° C. [4]: 99.5%

SMILES: Cc1cccc(C)c1OCC(C)NC(=O)[C@@H](N)Cc1ccccc1.Cl (stereo partly drawn) [Mexiletine phenylalanine amide, Mexiletine-(S)-Phenylalanine Amide Hydrochloride]
- T50% Cmax [1]: 3.5** h

SMILES: Cc1cccc(C)c1OCC(C)NC(=O)C(N)CO (stereo not drawn) [Mexiletine serine amide]
- T50% Cmax [1]: 6.00 h
- T50% Cmax [2]: 5.05 h

SMILES: Cc1cccc(C)c1OCC(C)NC(=O)[C@@H](N)C(C)C.Cl (stereo partly drawn) [Mexiletine valine amide, Mexiletine-(S)-Valine Amide Hydrochloride]
- Simulated gastric fluid (pH 1.1): % remaining after 2 h/37° C. [3]: 98.7%
- Simulated intestinal fluid (pH 6.8): % remaining after 2 h/37° C. [3]: 98.3%
- T50% Cmax [1]: 5.0** h
- pH 7.4, 37° C. 0.1M phosphate buffer: % remaining after 2 h/37° C. [4]: 98.8%

SMILES: Cc1cccc(C)c1OCC(C)NC(=O)[C@@H](NC(=O)[C@@H](N)C(C)C)C(C)C.Cl (stereo partly drawn) [Mexiletine valine-valine amide, Mexiletine-valine-valine Amide Hydrochloride]
- T50% Cmax [1]: 4.25** h

SMILES: Cc1cccc(C)c1OCC(C)NC(=O)CCN (stereo not drawn) [Mexiletine β alanine amide]
- Cmax of mexiletine [1]: BLQ
- Cmax of mexiletine [2]: BLQ

SMILES: Cc1cccc(C)c1OCC(C)NC(=O)[C@@H](N)CC(=O)O (stereo partly drawn) [Mexiletine-(S)-aspartic acid amide, Mexiletine-(S)-Aspartic Acid Amide Hydrochloride]
- Simulated gastric fluid (pH 1.1): % remaining after 2 h/37° C. [3]: 99.2%
- Simulated intestinal fluid (pH 6.8): % remaining after 2 h/37° C. [3]: 99.9%
- pH 7.4, 37° C. 0.1M phosphate buffer: % remaining after 2 h/37° C. [4]: 99.9%

SMILES: NCC1(CC(=O)O)CCCCC1 [gabapentin]
- Bioavailability ([6]; 900 mg/day gabapentin): approximately 60%
- Bioavailability ([6]; 1200 mg/day gabapentin): ~47%
- Bioavailability ([6]; 2400 mg/day gabapentin): ~34%
- Bioavailability ([6]; 3600 mg/day gabapentin): ~33%
- Bioavailability ([6]; 4800 mg/day gabapentin): ~27%

SMILES: Cc1cccc(C)c1NC(=O)C(C)N (stereo not drawn) [tocamide]
- Increase in the speed of stair step movement [7]: 2.7 fold
- Reduction in the time taken for eye opening [7]: 7 fold
- Reduction of hand opening time [7]: 4.2 fold
